This note sets out measurements from US10017511B2, “Pyrazolopyrimidinones for the treatment of impotence and process for the preparation thereof” (COUNCIL OF SCIENTIFIC & INDUSTRIAL RESEARCH, priority 2014, dated 2018).

Usually IC50 stands for the concentration that inhibits the measured activity by half. Read a low IC50 as greater potency in that assay.

Assay [1] relates to conscious rabbit (length of uncovered penile mucosa). The assay can be described thus: In vivo efficacy, conscious rabbit model of penile erection. The conditions noted are these: 3 mg/kg intravenous, SNP 0.2 mg/kg 5 min later, measured for an hour, SNP alone values subtracted. The method, then: . SNP alone was also used as a control and the values obtained were subtracted from both the molecules).
Nitric oxide is the main neurotransmitter which mediates smooth muscle relaxation by activating the guanylate cyclise during penile erection, which in turn increases the cGMP level.
This solution was injected into the ear vein of a group of five healthy male rabbit (3-3.5 kg weight) in a volume of 0.5 ml/kg. The event was followed 5 minutes later by another equal volume saline injection containing Sodium nitroprusside (0.2 mg/kg), which acts as a donor of Nitric oxide (NO). Length of uncovered penile mucosa was measured with a sliding caliper at different time points for an hour after administration of the test compounds. The area under the curve (AUC) was calculated by Graph Pad Software. Controls experiments were performed with the SNP alone injections. […]

Another assay has as its target human PDE5A (Homo sapiens, UniProt O76074). The assay can be described thus: PDE5 enzyme inhibitory assay (PDE Glo Phosphodiesterase Assay).

Protocol for human PDE5A: The assays were performed by following the manufacturer recommended protocol.
Data analysis was performed with GraphPad Prism®, version 5.00, for Windows using a sigmoidal dose-response (variable slope) equation. Each point represents an average of two replicates per concentration.

As to `CCCc1nn(C)c2c(=O)[nH]c(-c3cc(S(=O)(=O)N4CCC(=O)CC4)ccc3OCC)nc12` [Compound Aa, 5-(2-ethoxy-5-((4-oxopiperidin-1-yl)sulfonyl)phenyl)-1-methyl-3-propyl-1H-pyrazolo[4,3-d]pyrimidin-7(6H)-one], the “area under the curve (AUC) of length of uncovered penile mucosa” value in assay [1] was found to be 722. Also, on human PDE5A, the 50% inhibitory concentration (IC50) came out at 0.8 nM.

The molecule `CCCc1nn(C)c2c(=O)[nH]c(-c3cc(S(=O)(=O)N4CCC(O)CC4)ccc3OCC)nc12` [Compound Ab, 5-(2-ethoxy-5-((4-hydroxypiperidin-1-yl)sulfonyl)phenyl)-1-methyl-3-propyl-1H-pyrazolo[4,3-d]pyrimidin-7(6H)-one] had an IC50 at human PDE5A of 4.8 nM. Turning to `CCCc1nn(C)c2c(=O)[nH]c(-c3cc(S(=O)(=O)N4CCN(C)CC4)ccc3OCC)nc12` [Sildenafil, reference compound], the “area under the curve (AUC) of length of uncovered penile mucosa” value in assay [1] stood at 330.
